In PMC7914897, “Cytotoxic Potential of a-Azepano- and 3-Amino-3,4-SeCo-Triterpenoids” (International Journal of Molecular Sciences, 2021):

How the values were obtained:
[1] = test system: Melanoma subpanel; experiment: NCI-60 screen, subpanel; details: Homo sapiens
[2] = test system: Leukemia subpanel; experiment: cells; details: Homo sapiens
[3] = test system: HCT-15 (Colon cancer); experiment: NCI-60 screen (SRB, 48 h); details: Homo sapiens
[4] = test system: MOLT-4 (Leukemia); experiment: NCI-60 screen (SRB, 48 h); details: Homo sapiens
[5] = test system: SNB-19 (CNS cancer); experiment: NCI-60 screen (SRB, 48 h); details: Homo sapiens
[6] = test system: NCI-H226 (NSC lung cancer); experiment: NCI-60 screen (SRB, 48 h); details: Homo sapiens
[7] = test system: UO-31 (Renal cancer); experiment: NCI-60 screen (SRB, 48 h); details: Homo sapiens
[8] = test system: HS 578T (Breast cancer); experiment: NCI-60 screen (SRB, 48 h); details: Homo sapiens
[9] = test system: MDA-MB-435 (Melanoma); experiment: NCI-60 screen (SRB, 48 h); format: cell-based; details: Homo sapiens
[10] = test system: MALME-3M (Melanoma); experiment: NCI-60 screen (SRB, 48 h); details: Homo sapiens
[11] = test system: CCRF-CEM (Leukemia); experiment: NCI-60 screen (SRB, 48 h); details: Homo sapiens
[12] = test system: KM12 (Colon cancer); experiment: NCI-60 screen (SRB, 48 h); details: Homo sapiens
[13] = test system: HT29 (Colon cancer); experiment: NCI-60 screen (SRB, 48 h); details: Homo sapiens
[14] = test system: HCC-2998 (Colon cancer); experiment: NCI-60 screen (SRB, 48 h); details: Homo sapiens
[15] = test system: RPMI-8226 (Leukemia); experiment: NCI-60 screen (SRB, 48 h); details: Homo sapiens
[16] = test system: UACC-257 (Melanoma); experiment: NCI-60 screen (SRB, 48 h); details: Homo sapiens
[17] = test system: T-47D (Breast cancer); experiment: NCI-60 screen (SRB, 48 h); details: Homo sapiens, T47D
[18] = test system: DU-145 (Prostate cancer); experiment: NCI-60 screen (SRB, 48 h); details: Homo sapiens
[19] = test system: SW-620 (Colon cancer); experiment: NCI-60 screen (SRB, 48 h); details: Homo sapiens
[20] = test system: SR (Leukemia); experiment: NCI-60 screen (SRB, 48 h); format: cell-based
[21] = test system: OVCAR-3 (Ovarian cancer); experiment: cells; details: Homo sapiens
[22] = test system: Prostate cancer subpanel; experiment: NCI-60 screen, subpanel; details: Homo sapiens
[23] = test system: MCF7 (Breast cancer); experiment: NCI-60 screen (SRB, 48 h); details: Homo sapiens
[24] = test system: IGROV1 (Ovarian cancer); experiment: NCI-60 screen (SRB, 48 h); details: Homo sapiens
[25] = test system: COLO 205 (Colon cancer); experiment: NCI-60 screen (SRB, 48 h); details: Homo sapiens
[26] = test system: SK-MEL-5 (Melanoma); experiment: NCI-60 screen (SRB, 48 h); details: Homo sapiens
[27] = test system: TK-10 (Renal cancer); experiment: NCI-60 screen (SRB, 48 h); details: Homo sapiens
[28] = test system: K-562 (Leukemia); experiment: NCI-60 screen (SRB, 48 h); details: Homo sapiens
[29] = test system: HOP-92 (NSC lung cancer); experiment: NCI-60 screen (SRB, 48 h); details: Homo sapiens

Compound: CC1(C)CC[C@]23CC[C@]4(C)[C@H](CC[C@@H]5[C@@]6(C)CCCNC(C)(C)[C@@H]6CC[C@]54C)[C@H]2[C@H]1OC3 [Compound 7, Azepanoallobetulin]
- IC (TGI) ([1]; 48 h, read-out: TGI MG_MID): 3.37 µM
- GI50 ([1]; read-out: GI50 MG_MID): 1.76 µM
- CC50 ([1]; read-out: LC50 MG_MID): 6.52 µM
- IC (TGI) ([2]; 48 h, read-out: TGI MG_MID): 5.49 µM
- GI50 ([2]; read-out: GI50 MG_MID): 1.96 µM
- CC50 ([2]; read-out: LC50 MG_MID): 94.3 µM
- GI50 ([3]; HCT-15): 1.31 µM
- IC (TGI) ([3]; HCT-15, 48 h, read-out: TGI): 2.68 µM
- CC50 ([3]; HCT-15, read-out: LC50): 5.47 µM
- GI50 ([4]; MOLT-4): 2.1 µM
- IC (TGI) ([4]; MOLT-4, 48 h, read-out: TGI): 5.04 µM
- CC50 ([4]; MOLT-4, read-out: LC50): 74.8 µM
- GI50 ([5]; SNB-19): 1.85 µM
- IC (TGI) ([5]; SNB-19, 48 h, read-out: TGI): 3.35 µM
- CC50 ([5]; SNB-19, read-out: LC50): 6.07 µM
- GI50 ([6]; NCI-H226): 1.7 µM
- IC (TGI) ([6]; NCI-H226, 48 h, read-out: TGI): 3.47 µM
- CC50 ([6]; NCI-H226, read-out: LC50): 7.09 µM
- GI50 ([7]; UO-31): 1.56 µM
- IC (TGI) ([7]; UO-31, 48 h, read-out: TGI): 3 µM
- CC50 ([7]; UO-31, read-out: LC50): 5.77 µM
- GI50 [8]: 1.96 µM
- IC (TGI) ([8]; 48 h, read-out: TGI): 4.69 µM
- CC50 ([8]; read-out: LC50): 2.44 µM
- GI50 ([9]; MDA-MB-435): 1.65 µM
- IC (TGI) ([9]; MDA-MB-435, 48 h, read-out: TGI): 3.02 µM
- CC50 ([9]; MDA-MB-435, read-out: LC50 (the source's name)): 5.55 µM
- GI50 [10]: 1.79 µM
- IC (TGI) ([10]; 48 h, read-out: TGI): 3.47 µM
- CC50 ([10]; read-out: LC50): 6.72 µM
- GI50 [11]: 2.32 µM
- IC (TGI) ([11]; 48 h, read-out: TGI): 6.73 µM
- CC50 ([11]; read-out: LC50): > 100 µM
- GI50 ([12]; KM12): 1.86 µM
- IC (TGI) ([12]; KM12, 48 h, read-out: TGI): 3.44 µM
- GI50 ([13]; HT-29): 1.78 µM
- IC (TGI) ([13]; HT-29, 48 h, read-out: TGI): 3.63 µM
- CC50 ([13]; HT-29, read-out: LC50): 7.42 µM
- GI50 ([14]; HCC 2998): 1.54 µM
- IC (TGI) ([14]; HCC 2998, 48 h, read-out: TGI): 2.97 µM
- CC50 ([14]; HCC 2998, read-out: LC50): 5.72 µM
- GI50 ([15]; RPMI-8226): 1.94 µM
- IC (TGI) ([15]; RPMI-8226, 48 h, read-out: TGI): 4.58 µM
- CC50 ([15]; RPMI-8226, read-out: LC50): 96.8 µM
- GI50 ([16]; UACC-257): 1.92 µM
- IC (TGI) ([16]; UACC-257, 48 h, read-out: TGI): 3.89 µM
- CC50 ([16]; UACC-257, read-out: LC50): 7.77 µM
- GI50 [17]: 1.71 µM
- IC (TGI) ([17]; 48 h, read-out: TGI): 3.69 µM
- CC50 ([17]; read-out: LC50): 7.99 µM
- GI50 ([18]; DU-145): 1.74 µM
- IC (TGI) ([18]; DU-145, 48 h, read-out: TGI): 3.23 µM
- CC50 ([18]; DU-145, read-out: LC50): 6 µM
- GI50 ([19]; SW-620): 1.75 µM
- IC (TGI) ([19]; SW-620, 48 h, read-out: TGI): 3.49 µM
- CC50 ([19]; SW-620, read-out: LC50): 6.95 µM
- TGI [20]: 4.12 µM
- GI50 ([20]; Homo sapiens): 1.49 µM
- CC50 ([20]; Homo sapiens, read-out: LC50 (the source's name)): > 100 µM
- GI50 ([21]; OVCAR-3): 1.62 µM
- IC (TGI) ([21]; OVCAR-3, 48 h, read-out: TGI): 3.1 µM
- CC50 ([21]; OVCAR-3, read-out: LC50): 5.94 µM
- IC (TGI) ([22]; 48 h, read-out: TGI MG_MID): 3.2 µM
- GI50 ([22]; read-out: GI50 MG_MID): 1.67 µM
- CC50 ([22]; read-out: LC50 MG_MID): 6.12 µM
- GI50 ([23]; MCF7): 1.44 µM
- IC (TGI) ([23]; MCF7, 48 h, read-out: TGI): 3.01 µM
- CC50 ([23]; MCF7, read-out: LC50): 6.3 µM
- GI50 ([24]; IGROV-1): 1.79 µM
- IC (TGI) ([24]; IGROV-1, 48 h, read-out: TGI): 3.48 µM
- CC50 ([24]; IGROV-1, read-out: LC50): 6.78 µM
- GI50 ([25]; COLO 205): 1.28 µM
- IC (TGI) ([25]; COLO 205, 48 h, read-out: TGI): 2.68 µM
- CC50 ([25]; COLO 205, read-out: LC50): 5.61 µM
- GI50 ([26]; SK-MEL-5): 1.69 µM
- IC (TGI) ([26]; SK-MEL-5, 48 h, read-out: TGI): 3.06 µM
- CC50 ([26]; SK-MEL-5, read-out: LC50): 5.53 µM
- GI50 ([27]; TK-10): 1.89 µM
- IC (TGI) ([27]; TK-10, 48 h, read-out: TGI): 3.61 µM
- CC50 ([27]; TK-10, read-out: LC50): 6.91 µM
- GI50 ([28]; K562): 1.96 µM
- IC (TGI) ([28]; K562, 48 h, read-out: TGI): 7 µM
- CC50 ([28]; K562, read-out: LC50): > 100 µM
- GI50 ([29]; HOP-92): 1.41 µM
- IC (TGI) ([29]; HOP-92, 48 h, read-out: TGI): 2.96 µM
